Laboratory results reported in ChEMBL document CHEMBL5584296, “Discovery of Novel Pyrimidine-Based Derivatives as Nav1.2 Inhibitors with Efficacy in Mouse Models of Epilepsy” (J Med Chem, 2024).

Experiments:
[1] = target: T1, Sodium channel protein type 2 subunit alpha (Homo sapiens, UniProt Q99250); assay: Inhibition of human Nav1.2 expressed in HEK293 cells at 0.1 uM measured after 5 mins by whole cell voltage clamp electrophysiological analysis relative to control; type: cell-based
Target sequence in this assay (Q99250 whole entry, looked up): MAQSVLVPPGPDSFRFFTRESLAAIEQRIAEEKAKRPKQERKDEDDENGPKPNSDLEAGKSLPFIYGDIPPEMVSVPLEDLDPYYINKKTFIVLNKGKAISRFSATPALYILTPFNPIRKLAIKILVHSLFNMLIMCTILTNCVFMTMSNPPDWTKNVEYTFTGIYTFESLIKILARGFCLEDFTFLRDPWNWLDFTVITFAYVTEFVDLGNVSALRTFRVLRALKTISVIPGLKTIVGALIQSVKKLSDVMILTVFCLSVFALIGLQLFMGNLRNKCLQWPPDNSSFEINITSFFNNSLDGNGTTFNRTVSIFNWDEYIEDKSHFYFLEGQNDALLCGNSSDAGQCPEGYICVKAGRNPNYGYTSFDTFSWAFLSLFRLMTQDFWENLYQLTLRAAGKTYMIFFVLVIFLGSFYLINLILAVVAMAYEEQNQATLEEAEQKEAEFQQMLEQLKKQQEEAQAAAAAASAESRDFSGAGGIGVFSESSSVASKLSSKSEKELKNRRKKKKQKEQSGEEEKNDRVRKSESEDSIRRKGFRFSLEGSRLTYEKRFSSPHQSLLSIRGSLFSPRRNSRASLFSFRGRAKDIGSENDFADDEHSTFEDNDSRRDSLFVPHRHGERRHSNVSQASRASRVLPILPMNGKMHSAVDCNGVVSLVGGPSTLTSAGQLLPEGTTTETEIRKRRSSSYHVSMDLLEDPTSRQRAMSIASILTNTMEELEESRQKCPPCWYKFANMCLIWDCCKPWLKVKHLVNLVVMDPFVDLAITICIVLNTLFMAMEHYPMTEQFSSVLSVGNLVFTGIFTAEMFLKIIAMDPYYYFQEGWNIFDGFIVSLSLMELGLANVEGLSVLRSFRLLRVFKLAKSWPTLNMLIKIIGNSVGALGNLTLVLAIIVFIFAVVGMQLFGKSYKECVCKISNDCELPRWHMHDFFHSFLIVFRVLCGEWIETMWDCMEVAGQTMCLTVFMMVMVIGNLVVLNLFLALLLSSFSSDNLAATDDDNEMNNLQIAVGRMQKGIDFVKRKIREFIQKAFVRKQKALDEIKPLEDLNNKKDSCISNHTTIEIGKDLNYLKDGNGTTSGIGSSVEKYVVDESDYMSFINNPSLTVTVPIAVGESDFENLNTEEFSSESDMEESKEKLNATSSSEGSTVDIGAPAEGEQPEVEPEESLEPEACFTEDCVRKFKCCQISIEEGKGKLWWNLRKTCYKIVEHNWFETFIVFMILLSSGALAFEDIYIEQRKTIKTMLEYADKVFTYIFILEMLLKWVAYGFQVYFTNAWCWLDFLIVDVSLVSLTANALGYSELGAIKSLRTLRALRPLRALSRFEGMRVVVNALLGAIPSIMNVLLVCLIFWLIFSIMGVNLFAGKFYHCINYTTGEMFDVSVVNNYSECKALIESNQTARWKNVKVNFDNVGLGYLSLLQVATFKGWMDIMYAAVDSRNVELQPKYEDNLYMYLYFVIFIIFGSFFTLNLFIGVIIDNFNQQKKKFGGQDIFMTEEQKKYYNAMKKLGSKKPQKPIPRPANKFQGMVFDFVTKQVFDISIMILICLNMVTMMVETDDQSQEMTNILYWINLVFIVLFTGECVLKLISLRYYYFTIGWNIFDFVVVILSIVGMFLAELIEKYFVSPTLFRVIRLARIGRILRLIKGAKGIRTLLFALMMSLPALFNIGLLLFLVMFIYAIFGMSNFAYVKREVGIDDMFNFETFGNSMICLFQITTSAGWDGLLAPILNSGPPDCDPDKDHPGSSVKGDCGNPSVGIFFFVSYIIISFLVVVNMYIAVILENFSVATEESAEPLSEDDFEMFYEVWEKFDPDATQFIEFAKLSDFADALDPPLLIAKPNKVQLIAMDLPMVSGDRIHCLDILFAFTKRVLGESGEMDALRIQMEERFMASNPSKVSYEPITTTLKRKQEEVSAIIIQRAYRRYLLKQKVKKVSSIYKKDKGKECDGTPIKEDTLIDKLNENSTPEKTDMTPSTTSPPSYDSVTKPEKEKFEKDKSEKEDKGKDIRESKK

[2] = target: T1, Sodium channel protein type 2 subunit alpha; assay: Inhibition of human Nav1.2 expressed in HEK293 cells assessed as effect on steady state inactivation by measuring half activation potential at 10 uM (reference value: -65 mV); type: cell-based
Target sequence in this assay (Q99250 whole entry, looked up): as above

[3] = target: T1, Sodium channel protein type 2 subunit alpha; assay: Inhibition of human Nav1.2 expressed in HEK293 cells at -40 mv holding potential measured after 5 mins by whole cell voltage clamp electrophysiological analysis; type: cell-based
Target sequence in this assay (Q99250 whole entry): as the sequence (Q99250 whole entry, looked up) above

[4] = Tmax in male ICR mouse at 1 mg/kg, iv measured after 24 hrs by LC-MS/MS analysis; type: ADME, organism-based; details: in vivo
Mus musculus [5] = assay: Antiepileptic activity in MES-induced seizure male ICR mouse model assessed as protection against tonic hind limb extension at 10 mg/kg, ip measured after 30 mins relative to control; type: functional; details: 0.5 h
[6] = target: Sodium channel protein type 5 subunit alpha (Homo sapiens, UniProt Q14524); assay: Inhibition of human Nav1.5 expressed in CHL cells assessed as test to control ratio at 0.1 uM by whole cell voltage clamp electrophysiological analysis; type: cell-based
[7] = target: T1, Sodium channel protein type 2 subunit alpha; assay: Inhibition of human Nav1.2 expressed in HEK293 cells assessed as test to control ratio at 1 uM measured after 5 mins by whole cell voltage clamp electrophysiological analysis; type: cell-based
Target sequence in this assay (Q99250 whole entry, looked up): as above

[8] = target: T1, Sodium channel protein type 2 subunit alpha; assay: Inhibition of human Nav1.2 expressed in HEK293 cells at -120 mv holding potential measured after 5 mins by whole cell voltage clamp electrophysiological analysis; type: cell-based
Target sequence in this assay (Q99250 whole entry): as the sequence (Q99250 whole entry, looked up) above

[9] = MRT (0 to infinity) in male ICR mouse at 1 mg/kg, iv measured after 24 hrs by LC-MS/MS analysis; type: ADME, organism-based; details: in vivo
[10] = Ratio of drug concentration in male ICR mouse brain to plasma at 10 mg/kg, ip measured after 0.25 hrs by LC-MS/MS analysis; type: ADME, organism-based; details: read-out: BPR
[11] = Drug concentration in male ICR mouse brain at 10 mg/kg, ip measured after 0.25 hrs by LC-MS/MS analysis; type: ADME, organism-based; details: read-out: Ct
[12] = Drug concentration in male ICR mouse plasma at 20 mg/kg, po measured after 0.5 hrs by LC-MS/MS analysis; type: ADME, organism-based
[13] = Half-life in male ICR mouse at 10 mg/kg, ip measured after 24 hrs by LC-MS/MS analysis; type: ADME, organism-based; details: in vivo
[14] = Cmax in male ICR mouse at 20 mg/kg, po measured after 24 hrs by LC-MS/MS analysis; type: ADME, organism-based; details: in vivo
[15] = Neurotoxicity in male ICR mouse assessed as motor impairment at 20 mg/kg, ip administered for 30 mins by rotarod test relative to control; type: toxicity, organism-based; details: in vivo, 0.5 h
[16] = target: T1, Sodium channel protein type 2 subunit alpha; assay: Inhibition of human Nav1.2 expressed in HEK293 cells assessed as test to control ratio at 10 uM measured after 5 mins by whole cell voltage clamp electrophysiological analysis; type: cell-based
Target sequence in this assay (Q99250 whole entry, looked up): as above

[17] = Ratio of drug concentration in male ICR mouse brain to plasma at 20 mg/kg, po measured after 0.5 hrs by LC-MS/MS analysis; type: ADME, organism-based; details: read-out: BPR
[18] = Ratio of drug concentration in male ICR mouse brain to plasma at 10 mg/kg, ip measured after 0.5 hrs by LC-MS/MS analysis; type: ADME, organism-based; details: read-out: BPR
[19] = Neurotoxicity in male ICR mouse assessed as motor impairment at 30 mg/kg, ip administered for 30 mins by rotarod test relative to control; type: toxicity, organism-based; details: in vivo, 0.5 h
[20] = Drug concentration in male ICR mouse plasma at 20 mg/kg, po measured after 0.25 hrs by LC-MS/MS analysis; type: ADME, organism-based
Mus musculus [21] = assay: Antiepileptic activity in 6 Hz(32 mA)-induced seizure male C57BL mouse model assessed as protection against seizure at 100 mg/kg, ip administered for 30 mins by epilepsy test; type: functional; details: 0.5 h
[22] = target: T1, Sodium channel protein type 2 subunit alpha; assay: Inhibition of human Nav1.2 expressed in HEK293 cells assessed as effect on steady state activation by measuring half activation potential at 10 uM (reference value: -33 mV); type: cell-based
Target sequence in this assay (Q99250 whole entry, looked up): as above

Mus musculus [23] = assay: Antiepileptic activity in MES-induced seizure male ICR mouse model assessed as protection against tonic hind limb extension administered intraperitoneally for 30 mins; type: functional; details: 0.5 h, route ip
[24] = AUC (0 to infinity) in male ICR mouse at 20 mg/kg, po measured after 24 hrs by LC-MS/MS analysis; type: ADME, organism-based; details: in vivo
[25] = Tmax in male ICR mouse at 10 mg/kg, ip measured after 24 hrs by LC-MS/MS analysis; type: ADME, organism-based; details: in vivo
[26] = Ratio of drug concentration in male ICR mouse brain to plasma at 20 mg/kg, po measured after 0.25 hrs by LC-MS/MS analysis; type: ADME, organism-based; details: read-out: BPR
[27] = Tmax in male ICR mouse at 20 mg/kg, po measured after 24 hrs by LC-MS/MS analysis; type: ADME, organism-based; details: in vivo
[28] = Drug concentration in male ICR mouse brain at 10 mg/kg, ip measured after 0.5 hrs by LC-MS/MS analysis; type: ADME, organism-based; details: read-out: Ct
[29] = AUC (0 to infinity) in male ICR mouse at 10 mg/kg, ip measured after 24 hrs by LC-MS/MS analysis; type: ADME, organism-based; details: in vivo
[30] = Neurotoxicity in male ICR mouse assessed as motor impairment at 25 mg/kg, ip administered for 30 mins by rotarod test relative to control; type: toxicity, organism-based; details: in vivo, 0.5 h
[31] = Drug concentration in male ICR mouse brain at 20 mg/kg, po measured after 0.25 hrs by LC-MS/MS analysis; type: ADME, organism-based; details: read-out: Ct
[32] = MRT (0 to infinity) in male ICR mouse at 10 mg/kg, ip measured after 24 hrs by LC-MS/MS analysis; type: ADME, organism-based; details: in vivo
[33] = AUC (0 to infinity) in male ICR mouse at 1 mg/kg, iv measured after 24 hrs by LC-MS/MS analysis; type: ADME, organism-based; details: in vivo
[34] = Drug concentration in male ICR mouse cerebrospinal fluid at 20 mg/kg, po measured after 0.25 hrs by LC-MS/MS analysis; type: ADME, organism-based; details: read-out: Ct
Mus musculus [35] = assay: Antiepileptic activity in MES-induced seizure male ICR mouse model assessed as protection against tonic hind limb extension at 5 mg/kg, ip measured after 30 mins relative to control; type: functional; details: 0.5 h
[36] = Drug concentration in male ICR mouse plasma at 10 mg/kg, ip measured after 0.25 hrs by LC-MS/MS analysis; type: ADME, organism-based
Mus musculus [37] = assay: Antiepileptic activity in 6 Hz(32 mA)-induced seizure male C57BL mouse model assessed as reduction in seizure time at 100 mg/kg, ip administered for 30 mins by epilepsy test (reference value: 22.7 +/- 1.6 sec); type: functional; details: 0.5 h
Mus musculus [38] = assay: Antiepileptic activity in 6 Hz(32 mA)-induced seizure male C57BL mouse model assessed as protection against seizure at 50 mg/kg, ip administered for 30 mins by epilepsy test; type: functional; details: 0.5 h
[39] = Cmax in male ICR mouse at 1 mg/kg, iv measured after 24 hrs by LC-MS/MS analysis; type: ADME, organism-based; details: in vivo
[40] = target: Sodium channel protein type 1 subunit alpha (Homo sapiens) (UniProt P35498); assay: Inhibition of human Nav1.1 expressed in HEK293 cells assessed as test to control ratio at 1 uM by whole cell voltage clamp electrophysiological analysis; type: cell-based

Sequence of Sodium channel protein type 5 subunit alpha (Q14524 whole entry): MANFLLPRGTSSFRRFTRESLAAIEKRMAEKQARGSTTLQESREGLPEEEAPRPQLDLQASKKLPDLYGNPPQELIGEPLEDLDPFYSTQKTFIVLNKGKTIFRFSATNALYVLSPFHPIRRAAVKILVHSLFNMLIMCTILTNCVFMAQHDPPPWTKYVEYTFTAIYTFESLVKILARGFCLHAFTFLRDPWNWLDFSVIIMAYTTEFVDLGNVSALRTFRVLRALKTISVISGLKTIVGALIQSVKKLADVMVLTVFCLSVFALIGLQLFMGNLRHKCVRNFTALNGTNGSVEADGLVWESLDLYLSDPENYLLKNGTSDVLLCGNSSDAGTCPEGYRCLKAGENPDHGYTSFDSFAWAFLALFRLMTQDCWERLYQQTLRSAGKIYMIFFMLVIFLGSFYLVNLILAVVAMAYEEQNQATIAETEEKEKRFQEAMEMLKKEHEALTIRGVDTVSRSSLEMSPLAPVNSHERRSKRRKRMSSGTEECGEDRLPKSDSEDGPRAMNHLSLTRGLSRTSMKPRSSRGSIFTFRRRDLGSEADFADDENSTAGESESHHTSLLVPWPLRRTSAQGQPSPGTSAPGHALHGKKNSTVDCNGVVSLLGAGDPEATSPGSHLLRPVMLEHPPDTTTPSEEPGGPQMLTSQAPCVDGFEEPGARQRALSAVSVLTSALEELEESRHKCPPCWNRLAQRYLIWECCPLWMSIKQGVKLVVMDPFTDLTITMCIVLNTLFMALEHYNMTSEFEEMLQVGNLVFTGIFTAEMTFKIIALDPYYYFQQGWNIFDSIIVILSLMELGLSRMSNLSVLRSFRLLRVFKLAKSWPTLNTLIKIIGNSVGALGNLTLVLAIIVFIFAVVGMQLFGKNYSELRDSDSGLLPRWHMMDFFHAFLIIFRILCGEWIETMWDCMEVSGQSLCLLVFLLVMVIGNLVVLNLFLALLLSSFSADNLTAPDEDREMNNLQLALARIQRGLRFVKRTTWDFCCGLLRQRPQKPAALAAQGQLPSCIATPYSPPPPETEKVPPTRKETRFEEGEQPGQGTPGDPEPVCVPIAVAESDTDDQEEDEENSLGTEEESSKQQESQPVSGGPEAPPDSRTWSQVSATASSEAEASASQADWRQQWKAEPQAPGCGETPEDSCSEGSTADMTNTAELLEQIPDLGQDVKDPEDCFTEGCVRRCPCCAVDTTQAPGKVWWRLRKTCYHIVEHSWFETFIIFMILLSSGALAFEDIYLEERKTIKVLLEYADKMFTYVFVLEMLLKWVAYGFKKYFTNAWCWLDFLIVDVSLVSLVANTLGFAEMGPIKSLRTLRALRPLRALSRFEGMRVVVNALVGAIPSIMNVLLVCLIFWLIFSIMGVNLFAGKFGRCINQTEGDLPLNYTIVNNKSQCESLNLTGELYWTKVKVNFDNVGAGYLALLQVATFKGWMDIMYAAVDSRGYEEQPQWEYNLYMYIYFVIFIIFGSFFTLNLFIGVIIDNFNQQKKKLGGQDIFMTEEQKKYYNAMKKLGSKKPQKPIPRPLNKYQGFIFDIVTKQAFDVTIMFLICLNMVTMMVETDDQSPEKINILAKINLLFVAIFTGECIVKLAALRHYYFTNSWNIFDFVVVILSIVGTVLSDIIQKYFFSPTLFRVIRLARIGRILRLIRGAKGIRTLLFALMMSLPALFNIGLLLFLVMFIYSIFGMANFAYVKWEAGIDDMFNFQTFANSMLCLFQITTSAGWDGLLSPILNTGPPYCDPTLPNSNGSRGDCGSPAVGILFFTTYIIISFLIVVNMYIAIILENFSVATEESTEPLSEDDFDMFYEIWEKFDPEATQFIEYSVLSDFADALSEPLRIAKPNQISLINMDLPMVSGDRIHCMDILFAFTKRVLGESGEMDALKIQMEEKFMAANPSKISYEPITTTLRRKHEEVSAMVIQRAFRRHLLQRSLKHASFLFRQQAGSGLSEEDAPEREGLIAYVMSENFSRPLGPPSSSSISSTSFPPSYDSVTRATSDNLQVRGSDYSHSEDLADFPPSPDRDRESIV

COc1cccc(-c2cc(N3CCCc4ccccc4C3)nc(N)n2)c1
inhibition [1]: 40% | V1/2 [2]: -77 mV | IC50 [3]: 120 nM | Tmax [4]: 3 min | Activity (Mus musculus [5]): 88% | T/C [6]: 0.87 | T/C [7]: 0.03 | IC50 [8]: 11 µM | MRT inf [9]: 33.6 min | Kp at 0.25 h [10]: 3.1 | concentration at 0.25 h [11]: 1900 ng/g | concentration at 0.5 h [12]: 18.3 ng/mL | half-life [13]: 56.4 min | Cmax [14]: 63.4 ng/mL | Activity [15]: 13% | T/C [16]: 0.02 | Kp at 0.5 h [17]: 3.2 | Kp at 0.5 h [18]: 3.6 | Activity [19]: 88% | concentration at 0.25 h [20]: 166 ng/mL | Activity (Mus musculus [21]): 25% | V1/2 [22]: -31 mV | ED50 (Mus musculus [23]): 3.2 mg/kg | AUC(0-inf) [24]: 118 ng·h/mL | Tmax [25]: 7.2 min | Kp at 0.25 h [26]: 3.9 | Tmax [27]: 15 min | concentration at 0.5 h [28]: 800 ng/g | AUC(0-inf) [29]: 793 ng·h/mL | Activity [30]: 18% | concentration at 0.25 h [31]: 646 ng/g | MRT inf [32]: 51 min | AUC(0-inf) [33]: 184 ng·h/mL | concentration at 0.25 h [34]: 22.1 ng/g | Activity (Mus musculus [35]): 80% | concentration at 0.25 h [36]: 620 ng/mL | Time (Mus musculus [37]): 12.9 s | Activity (Mus musculus [38]): 0% | Cmax [39]: 389 ng/mL | T/C [40]: 0.03
